No end group written: not given here.

This note sets out measurements from US12318365B2, “Inhibition of dipeptide repeat proteins” (ALS Therapy Development Institute, priority 2019, dated 2025).

The test system of the data set is NSC-34 cells. As to the kind of experiment: Caspase-3 assay (apoptotic activity) in NSC-34 cells. Type of data set: cell-based. To be noted: for DRP-induced apoptotic activity: DRP 0.01-3 μM, 24 h, compared to DMSO-treated controls. An excerpt: Caspase-3/CPP32 Assay: The caspase-3 assay is a fluorometric assay that measures apoptotic cell death. Apoptosis is a form of “programmed” cell death, in which a certain family of proteins inside the cell triggers a cascade of chemical reactions that result in the cell killing itself. One family of proteins involved in this process is the caspase protein family. Of the caspase proteins, caspase-2, 8, 9, and 10 are known as “initiators,” those that trigger the death cascade, and caspase-3, 6, and 7 are known as “executioners,” which carry out the actual killing of the cell. In a caspase-3 assay, cells treated with test compounds are lysed, and a substrate known as DEVD-AFC is added to the lysate. If active caspase-3 enzyme is present in the lysate, it will cleave AFC from the DEVD-AFC substrate, resulting in a fluorescent signal that can be quantified using a fluorescence microtiter plate reader. Thus, the apoptotic activity of cells treated with test compounds can be quantified. Greater fluorescence readings correspond to more apoptotic cell death.
Cells were plated in culture medium in 2 96-well plates at a density of 3.7×10^4 cells per well, and incubated overnight at 37° C., 5% CO2. The following day, immediately prior to addition of test compounds, existing culture medium was removed and replaced with staggered volumes of culture medium as in Example 1. A 10 mM stock of MS023 was thawed to room temperature and diluted as in Example 1. A 10 mM stock of GR15 (SEQ ID NO: 1) and a 10 mM stock of PR15 (SEQ ID NO: 2) were equilibrated to room temperature and diluted in warm culture medium to achieve a final concentration of 300 nM in wells.
The following conditions were plated in triplicate. Samples were surrounded by border wells on the outside of the plate filled with sterile Phosphate-buffered saline to prevent evaporation of volume in experimental wells during incubation; • Background (Culture medium only) • Untreated/“Cells Only” (Cells in culture medium) • DMSO Control (Cells treated only with the amount of DMSO that GR- and PR-treated cells were exposed to) • GR Only (Cells treated only with 300 nM GR15) (SEQ ID NO: 1) • Cells treated with […] GR15 (SEQ ID NO: 1) and one of the following doses of MS023: 60 μM, 30 μM, 10 μM, 3 μM, 1 μM. • PR Only (Cells treated only with 300 nM PR15) (SEQ ID NO: 2) • Cells treated with 300 nM PR15 (SEQ ID NO: 2) and one of the following doses of MS023: 60 μM, 30 μM, 10 μM, 3 μM, 1 μM. • Cells treated with only one of the following doses of MS023: 60 μM, 30 μM, 10 μM, 3 μM, 1 μM. • Positive controls (Cells treated with either 5 or 16 μM PAC-1 Caspase-3 activator)
Plates were incubated for 24 h at 37° C., 5% CO2. Cells were tested and data were analyzed using the procedure detailed in Caspase-3 assay kit instructions.
Cells were plated in culture medium in 2 96-well plates at a density of 3.7×10^4 cells per well, and incubated overnight at 37° C., 5% CO2. The following day, immediately prior to addition of test compounds, existing culture medium was removed and replaced with staggered volumes of culture medium as in Example 1. A 10 mM stock of MS023 was thawed to room temperature and diluted in warm culture medium to achieve final concentrations of 3, 1, 0.3, 0.1, 0.03, and 0.01 μM in plate. A 10 mM stock of GR15 (SEQ ID NO: 1) and a 10 mM stock of PR15 (SEQ ID NO: 2) were equilibrated to room temperature and diluted in warm culture medium to achieve a final concentration of 3 μM in wells.
The following conditions were plated in triplicate. […]

Take PRPRPRPRPRPRPRPRPRPRPRPRPRPRPR [PR15]: the DRP-induced apoptotic activity result is recorded as “producing the most significant amount of apoptotic activity”.

For GRGRGRGRGRGRGRGRGRGRGRGRGRGRGR [GR15], the DRP-induced apoptotic activity entry is given as “producing the most significant amount of apoptotic activity”.

Take `CC(C)Oc1ccc(-c2c[nH]cc2CN(C)CCN)cc1` [MS023]: the “dose dependence of abrogation of GR-induced apoptotic activity” value (300 nM GR15, 24 h, MS023 1-60 μM) was “dose-dependently” and the “dose dependence of abrogation of GR-induced apoptotic activity” value (3 μM GR15, 24 h, MS023 0.01-3 μM) is recorded as “dose-dependently abrogated”. The “abrogation of GR-induced apoptotic activity” value reads like this: (300 nM GR15, 24 h, doses 3 and 1 μM) “fully abrogated”; (300 nM GR15, 24 h, doses 60, 30 and 10 μM) “partially abrogated”; (3 μM GR15, 24 h, all doses (0.01-3 μM)) “partially abrogated”; (3 μM GR15, 24 h, dose 3 μM) “fully abrogated”. For the same compound, the “dose dependence of abrogation of PR-induced apoptotic activity” value was “dose-dependently” (300 nM PR15, 24 h, MS023 1-60 μM) and “dose-dependently abrogated” (3 μM PR15, 24 h, MS023 0.01-3 μM). For the same compound, the “abrogation of PR-induced apoptotic activity” value by setting is: (300 nM PR15, 24 h, all doses (1-60 μM)) “fully abrogated”; (3 μM PR15, 24 h, all doses (0.01-3 μM)) “partially abrogated”; (3 μM PR15, 24 h, dose 3 μM) “fully abrogated”.
